Experimental data reported in paper PMC10698726 (Molecular Pharmaceutics, 2023).
pIC50: −log10 of the molar value. Read-outs that look alike come from different tables or passages of the source.

Legend:
[1] = target: T1, OCT2 (Homo sapiens, UniProt O15244); test: Inhibition of model substrate uptake in OCT2-overexpressing HEK293 cells; settings: for selectivity ratio at 5 min / inhibition at 5 min, 20 μM: OCT2-overexpressing HEK293 cells; for inhibition at 5 min, 20 μM / (S,S)-Ethambutol inhibition [%] / N-Ethyllidocaine inhibition [%] / ASP+ inhibition [%]: OCT2, 20 μM inhibitor; for inhibition at 5 min, 20 μM / (S,S)-Ethambutol inhibition [%] / N-Ethyllidocaine inhibition [%] / ASP+ inhibition [%] / pIC50: 5 min; for pIC50: IC50, OCT2, Table S5, 2 μM ASP+ as model substrate
T1 sequence (O15244 1-555): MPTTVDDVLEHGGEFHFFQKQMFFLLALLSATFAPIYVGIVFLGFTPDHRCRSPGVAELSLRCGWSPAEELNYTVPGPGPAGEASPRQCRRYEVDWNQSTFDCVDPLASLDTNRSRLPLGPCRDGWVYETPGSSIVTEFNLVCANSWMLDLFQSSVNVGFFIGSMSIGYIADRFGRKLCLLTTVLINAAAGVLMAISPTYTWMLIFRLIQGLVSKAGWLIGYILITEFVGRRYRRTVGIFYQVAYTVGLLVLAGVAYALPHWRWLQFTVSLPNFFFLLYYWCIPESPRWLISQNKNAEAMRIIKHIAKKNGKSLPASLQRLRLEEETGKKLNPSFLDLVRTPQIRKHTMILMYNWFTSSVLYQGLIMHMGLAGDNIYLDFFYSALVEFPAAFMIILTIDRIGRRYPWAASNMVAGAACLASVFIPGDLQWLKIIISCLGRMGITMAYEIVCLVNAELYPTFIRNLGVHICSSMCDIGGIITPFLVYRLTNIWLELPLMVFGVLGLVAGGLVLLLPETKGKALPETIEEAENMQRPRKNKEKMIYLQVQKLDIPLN

[2] = target: T2, OCT3 (Homo sapiens, UniProt O75751); test: Inhibition of model substrate uptake in OCT3-overexpressing HEK293 cells; type: cell-based
T2 construct: expressed in transfected cells; host or cells: HEK293
T2 sequence (O75751 1-556): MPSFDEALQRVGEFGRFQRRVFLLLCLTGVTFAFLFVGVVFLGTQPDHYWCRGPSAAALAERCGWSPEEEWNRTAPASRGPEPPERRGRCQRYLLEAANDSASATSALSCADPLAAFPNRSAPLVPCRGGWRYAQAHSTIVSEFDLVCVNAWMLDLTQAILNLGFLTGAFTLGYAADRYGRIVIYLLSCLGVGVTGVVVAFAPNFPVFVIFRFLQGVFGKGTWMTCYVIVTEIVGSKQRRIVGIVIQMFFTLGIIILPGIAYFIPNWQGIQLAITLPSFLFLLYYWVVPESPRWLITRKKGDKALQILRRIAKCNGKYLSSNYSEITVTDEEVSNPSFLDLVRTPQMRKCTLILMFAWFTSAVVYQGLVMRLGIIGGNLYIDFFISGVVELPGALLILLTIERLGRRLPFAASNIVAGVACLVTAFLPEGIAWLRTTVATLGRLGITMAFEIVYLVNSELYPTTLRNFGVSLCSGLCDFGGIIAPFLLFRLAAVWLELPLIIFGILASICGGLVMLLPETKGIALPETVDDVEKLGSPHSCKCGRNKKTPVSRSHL
Method in brief: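 Transporter-overexpressing HEK293 cells were incubated 5 min in HBSS+ with 2 μM model substrate, with or without 20 μM inhibitor or increasing inhibitor concentrations. Uptake was read as ASP^+ fluorescence or by LC–MS/MS, with empty-vector uptake subtracted. IC50 came from a Hill fit of activity versus log concentration.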

[3] = target: T3, OCT1 (Homo sapiens, UniProt O15245); test: Inhibition of model substrate uptake in OCT1-overexpressing HEK293 cells; type: cell-based; set-up: expressed in transfected cells; host or cells: HEK293; settings: for inhibition at 5 min, 20 μM / selectivity ratio at 5 min: OCT1-overexpressing HEK293 cells
T3 sequence (O15245 1-554): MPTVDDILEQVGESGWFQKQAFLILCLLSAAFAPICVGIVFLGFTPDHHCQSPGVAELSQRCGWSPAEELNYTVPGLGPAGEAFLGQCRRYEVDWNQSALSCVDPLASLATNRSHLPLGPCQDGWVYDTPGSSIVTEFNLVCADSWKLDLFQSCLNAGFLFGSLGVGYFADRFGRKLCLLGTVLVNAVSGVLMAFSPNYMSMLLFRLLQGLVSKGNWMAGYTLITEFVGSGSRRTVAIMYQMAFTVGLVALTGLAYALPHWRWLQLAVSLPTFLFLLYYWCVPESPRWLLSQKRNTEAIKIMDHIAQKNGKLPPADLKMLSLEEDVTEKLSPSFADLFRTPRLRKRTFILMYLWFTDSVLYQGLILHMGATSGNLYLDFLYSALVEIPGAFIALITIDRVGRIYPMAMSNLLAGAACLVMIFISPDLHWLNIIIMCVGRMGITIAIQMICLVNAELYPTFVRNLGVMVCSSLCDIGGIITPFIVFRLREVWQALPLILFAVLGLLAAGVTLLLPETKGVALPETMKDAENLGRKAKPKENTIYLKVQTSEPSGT
Method: Koepsell and Gorbulev (University of Würzburg, Germany).
Fluorescence quantification was performed in technical duplicates.

[4] = human, pH 7.4, probe (S,S)-ethambutol (2 μM), (S,S)-Ethambutol inhibition [%], 2 μM (S,S)-ethambutol
[5] = human, pH 7.4, probe ASP+ (2 μM), ASP+ inhibition [%], 2 μM ASP+
[6] = human, pH 7.4, probe N-ethyllidocaine (2 μM), N-Ethyllidocaine inhibition [%], 2 μM N-ethyllidocaine
[7] = HEK293, 5 min, read-out: (S)-Zolmitriptan inhibition [%], OCT3, 20 μM inhibitor, 2 μM (S)-zolmitriptan, 5 min
[8] = HEK293, 5 min, read-out: (S,S)-Ethambutol inhibition [%], OCT3, 20 μM inhibitor, 2 μM (S,S)-ethambutol, 5 min
[9] = HEK293, OCT3, 20 μM inhibitor, 2 μM ASP+, 5 min, read-out: ASP+ inhibition [%]
[10] = human, pH 7.4, probe (S,S)-ethambutol (2 μM), (S,S)-Ethambutol inhibition [%], OCT1, 20 μM inhibitor, 2 μM (S,S)-ethambutol, 5 min
[11] = human, pH 7.4, probe ASP+ (2 μM), OCT1, 20 μM inhibitor, 2 μM ASP+, 5 min, mean of three experiments, read-out: ASP+ inhibition [%]
[12] = human, pH 7.4, probe sumatriptan (2 μM), OCT1, 20 μM inhibitor, 2 μM sumatriptan, 5 min, read-out: Sumatriptan inhibition [%]
[13] = OCT3, 20 μM inhibitor, 2 μM (S)-zolmitriptan, 5 min
[14] = OCT3, 20 μM inhibitor, 2 μM (S,S)-ethambutol, 5 min
[15] = OCT3, 20 μM inhibitor, 2 μM ASP+, 5 min
[16] = OCT1, 20 μM inhibitor, 2 μM (S,S)-ethambutol, 5 min
[17] = OCT1, 20 μM inhibitor, 2 μM ASP+, 5 min, mean of three experiments
[18] = OCT1, 20 μM inhibitor, 2 μM sumatriptan, 5 min
[19] = HEK293, 5 min, read-out: (S)-Zolmitriptan inhibition [%]
[20] = HEK293, 5 min, read-out: (S,S)-Ethambutol inhibition [%]

SMILES | inhibition at 5 min, 20 μM [1, 4] [%] | inhibition at 5 min, 20 μM [1, 5] [%] | inhibition at 5 min, 20 μM [1, 6] [%] | inhibition at 20 µM [2, 7] [%] | inhibition at 20 µM [2, 8] [%] | inhibition at 20 µM [2, 9] [%] | inhibition at 5 min, 20 μM [3, 10] [%] | inhibition at 5 min, 20 μM [3, 11] [%] | inhibition at 5 min, 20 μM [3, 12] [%] | (S,S)-Ethambutol inhibition [%] ([1]; 2 μM (S,S)-ethambutol) | (S)-Zolmitriptan inhibition [%] [2, 13] [%] | (S,S)-Ethambutol inhibition [%] [2, 14] [%] | ASP+ inhibition [%] [2, 15] [%] | (S,S)-Ethambutol inhibition [%] [3, 16] [%] | ASP+ inhibition [%] [3, 17] [%] | Sumatriptan inhibition [%] [3, 18] [%] | N-Ethyllidocaine inhibition [%] ([1]; 2 μM N-ethyllidocaine) | ASP+ inhibition [%] ([1]; 2 μM ASP+) | also measured
CCCCN1CCCC[C@H]1C(=O)Nc1c(C)cccc1C [(S)-Bupivacaine] | 38.5 | 43.1 | 50.2 | 37.2 | 33.4 | 24.3 | 50.6 | 23.5 | 43.9 | – | – | – | – | – | – | – | – | – | IC50 ([1]; IC50 [μM], OCT2, Table 1): 48.4 µM; selectivity ratio at 5 min ([1]; human, pH 7.4): 2.3; pIC50 ([3]; OCT1, Table 1, read-out: IC50): 4.73; selectivity ratio at 5 min ([3]; human, pH 7.4, OCT1, Table S5, ratio of the IC50 values of both isomers, label = isomer named in the cell (as a rule the one with the higher IC50), read-out: Stereoselectivity (x-fold for the named isomer)): 1.8
NC[C@H](O)c1ccc(O)c(O)c1 [(R)-Norepinephrine] | – | 23.1 | 5.4 | – | – | – | – | – | – | -1.8 | -4.3 | 5.7 | 8.4 | -19.9 | -4.8 | -1.3 | – | – | –
CNCC[C@@H](Oc1ccc(C(F)(F)F)cc1)c1ccccc1 [(R)-Fluoxetine] | – | 65.6 | – | – | – | – | 77.5 | 45.6 | 83.4 | 28.2 | – | – | – | – | – | – | 48.9 | – | ASP+ inhibition [%] [2]: -6.0%; inhibition at 20 µM [2, 19]: 17%; inhibition at 20 µM [2, 20]: 9.6%
N[C@H]1CONC1=O [(S)-Cycloserine] | – | – | – | – | – | – | – | – | – | 0.8 | 6.3 | 12.2 | 19.3 | 0.3 | -2.6 | 35.9 | 14.6 | 14.6 | –
CCN(CC)CC#CCOC(=O)[C@@](O)(c1ccccc1)C1CCCCC1 [(S)-Oxybutynine] | – | – | – | – | – | – | – | – | – | 24.5 | 65.2 | 75.7 | 40.5 | 96.3 | 59.3 | 83.5 | 48.6 | 92.8 | pIC50 [1]: 4.70; pIC50 ([2]; IC50, OCT3, Table S5, 2 μM ASP+ or ethambutol as model substrate, 5 min): 4.40; pIC50 ([3]; IC50, OCT1, Table S5, 2 μM ASP+ or ethambutol as model substrate, 5 min): 3.85
OC[C@@H](O)CN1CCN(c2ccccc2)CC1 [(S)-Dropropizine] | – | – | – | – | – | – | – | – | – | 20.5 | -17.1 | 6.7 | 29.1 | 27.4 | 24.6 | 30.4 | 7.5 | 51.1 | pIC50 [1]: 4.25
Cc1cccc(C)c1OC[C@@H](C)N [(R)-Mexiletine] | 52.1 | 47 | 52.2 | 25 | 11.6 | -17.2 | 79.6 | 30.4 | 85.6 | – | – | – | – | – | – | – | – | – | –
C#CCN(C)[C@@H](C)Cc1ccccc1 [(S)-Deprenyl] | – | – | – | – | – | – | – | – | – | – | – | – | 9.6 | – | 26.1 | – | 47.7 | 88.0 | pIC50 [1]: 5.47; selectivity ratio ([1]; human, pH 7.4): 1.4; (S)-Zolmitriptan inhibition [%] [2]: 11.5%; (S,S)-Ethambutol inhibition [%] [2]: 20.9%; Sumatriptan inhibition [%] ([3]; human, pH 7.4): 68.6%
CCC(CO)NCCNC(CC)CO [(R,R)-Ethambutol] | – | 34.4 | 7.7 | – | – | – | – | 7.7 | 17.9 | – | -3.7 | – | 9.1 | – | – | – | – | – | –
CCCCN1CCCCC1C(=O)Nc1c(C)cccc1C (stereo not drawn) [Bupivacaine] | – | – | – | – | – | – | – | – | – | – | – | – | – | – | – | – | – | – | selectivity ratio at 5 min ([1]; human, pH 7.4): 2.3; stereoselective inhibition of OCT3 (in words) ([2]; ethambutol and zolmitriptan as substrates, 20 μM inhibitor): stereoselective inhibition; x-fold Stereoselectivity ([3]; OCT1, ratio of the IC50 values of the two enantiomers of the drug): 1.2 fold; selectivity ratio at 5 min ([3]; human, pH 7.4, OCT1, ratio of the IC50 values of the two enantiomers of the drug, read-out: x-fold Stereoselectivity): 1.8
COc1ccc([C@@H](CN(C)C)C2(O)CCCCC2)cc1 [(S)-Venlafaxine] | – | – | – | – | – | -11.4 | – | – | – | – | – | – | – | – | – | – | 13.4 | 21.8 | inhibition at 20 µM [2, 19]: 21%; inhibition at 20 µM [2, 20]: 4.6%; Sumatriptan inhibition [%] ([3]; human, pH 7.4): 66.9%
COc1ccccc1OCCNC[C@@H](O)COc1cccc2[nH]c3ccccc3c12 [(R)-Carvedilol] | 13.5 | 99.6 | 58.2 | 37.9 | 48.6 | 23.5 | 100 | 76.9 | 96.6 | – | – | – | – | – | – | – | – | – | –
CNC[C@H](O)c1cccc(O)c1 [(R)-Phenylephrine] | -8.4 | 8.2 | -1.4 | -2.9 | 5 | -4.1 | 6.3 | 3.2 | -2.8 | – | – | – | – | – | – | – | – | – | –
